Results taken from patent publication US20220387633A1, “SMART PEPTIDES AND TRANSFORMABLE NANOPARTICLES FOR CANCER IMMUNOTHERAPY” (The Regents of the University of California, priority 2019, published 2022).
Bridge positions count the residues as written; N and C are the ends. Square brackets hold non-standard residues; d marks the D form. Ends that are not written are not given here. Phe(3,5-F2) = N[C@@H](Cc1cc(F)cc(F)c1)C(=O)O; Hyp = O=C(O)[C@@H]1C[C@@H](O)CN1; BP = bis-pyrene

Columns and labels:
[1] = system: 4T1 tumour cells; experiment: Flow cytometry binding of LXY30 to 4T1 cells; design: species or system murine; conditions: 1 μM biotinylated LXY30
Protocol: Experiments were repeated three times. 3×10^5 cells incubated with 1 μM biotinylated LXY30 for 30 min on ice, after washing with PBS followed by incubation with 1:500 streptavidin-PE (1 mg/mL) for 30 min, then run with flow cytometry.

[2] = target: T1, HER2 receptor on the surface of HER2+ breast cancer cells (MCF-7/C6, SKBR-3, BT474) (human, UniProt P04626 23-1255); experiment: confocal microscopy on MCF-7/C6 cells, 8 h
T1 construct: whole, on cells; Endogenous HER2 on cell lines; MCF-7/C6 is derived from the human breast cancer line MCF-7 by fractionated irradiation; also called cell surface HER2; HER2 receptors of MCF-7/C6 cells

Row | binding result [2] | Molecule | binding to 4T1 tumour cells [1]
1 | – | cdG-Phe(3,5-diF)-G-Hyp-NcR ([dC][dD]G[Phe(3,5-F2)]G[Hyp]N[dC]R; also: cyclic peptide, ring type and places not given here) [LXY30] | did bind
2 | binds | {BP}-GGAAKYCDGFYACYMDV (disulfide 7-13 (inferred), Negative control with the HER2 ligand but without the beta-sheet forming peptide; Tested as nanoparticles of about 30 nm) | –
